Source: the supplement of paper PMC10883282

Key:
Assay in all cases: standardised AUC of viability dose-response curve (72 h) (fraction (0-1)); higher = less growth inhibition (more resistant)
A204 = tested on: A204
Summary of the method: (§1)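 Sarcoma cell lines in 384-well plates were treated in triplicate for 72 h with 2.5 µl of compound dilution series (compound-plate series 10 mM to 0.0002 mM, 1:3 steps). ATPLite viability was scaled 1 (full) to 0 (none) and fitted per drug and cell line with a four-parameter log-logistic model. The standardised area under the dose-response curve in log-dose space (modified drexplorer computeAUC) runs from 1 (no response) to 0 (full response).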

G401 = tested on: G401
Summary of the method: as §1

HS729 = tested on: HS729
Summary of the method: as §1

HT1080 = tested on: HT1080
Summary of the method: as §1

KHOS-240S = tested on: KHOS-240S
Summary of the method: as §1

KHOS-NP = tested on: KHOS-NP
Summary of the method: as §1

MES-SA = tested on: MES-SA
Summary of the method: as §1

RD-ES = tested on: RD-ES
Summary of the method: as §1

RD = tested on: RD
Summary of the method: as §1

SK-ES-1 = tested on: SK-ES-1
Summary of the method: as §1

SK-LMS-1 = tested on: SK-LMS-1
Summary of the method: as §1

SW1353 = tested on: SW1353
Summary of the method: as §1

SW684 = tested on: SW684
Summary of the method: as §1

SW872 = tested on: SW872
Summary of the method: as §1

SW982 = tested on: SW982
Summary of the method: as §1

SYO-1 = tested on: SYO-1
Summary of the method: as §1

VA-ES-BJ = tested on: VA-ES-BJ
Summary of the method: as §1

| SMILES | standardised AUC (A204) | standardised AUC (G401) | standardised AUC (HS729) | standardised AUC (HT1080) | standardised AUC (KHOS-240S) | standardised AUC (KHOS-NP) | standardised AUC (MES-SA) | standardised AUC (RD-ES) | standardised AUC (RD) | standardised AUC (SK-ES-1) | standardised AUC (SK-LMS-1) | standardised AUC (SW1353) | standardised AUC (SW684) | standardised AUC (SW872) | standardised AUC (SW982) | standardised AUC (SYO-1) | standardised AUC (VA-ES-BJ) |
| --- | --- | --- | --- | --- | --- | --- | --- | --- | --- | --- | --- | --- | --- | --- | --- | --- | --- |
| Cc1cccc(-c2[nH]c(CNc3ccccc3F)nc2-c2ccc3ncnn3c2)n1 [VACTOSERTIB] | 0.982 | 0.993 | 0.917 | 1 | 0.957 | 0.989 | 0.991 | 0.99 | 0.996 | 0.997 | 0.995 | 0.992 | 0.959 | 1 | 0.995 | 0.911 | 1 |
| N#CCC1(n2cc(-c3ncnc4[nH]ccc34)cn2)CN(C2CCN(C(=O)c3ccnc(C(F)(F)F)c3F)CC2)C1 [ITACITINIB] | 0.965 | 0.968 | 0.853 | 0.977 | 0.96 | 0.946 | 0.977 | 0.975 | 0.997 | 0.969 | 0.948 | 0.95 | 0.983 | 0.922 | 0.974 | 0.867 | 0.948 |
| COc1cc(OC)cc(N(CCNC(C)C)c2ccc3ncc(-c4cnn(C)c4)nc3c2)c1 [ERDAFITINIB] | 0.555 | 0.604 | 0.685 | 0.964 | 0.773 | 0.971 | 0.796 | 0.891 | 0.924 | 0.818 | 0.91 | 0.868 | 0.924 | 0.856 | 0.816 | 0.581 | 0.912 |
| Cc1nc(Nc2ncc(C(=O)Nc3c(C)cccc3Cl)s2)cc(N2CCN(CCO)CC2)n1 [DASATINIB] | 0.612 | 0.86 | 0.774 | 0.941 | 0.617 | 0.725 | 0.949 | 0.949 | 0.658 | 0.907 | 0.78 | 0.712 | 0.767 | 0.716 | 0.607 | 0.736 | 0.651 |
| COc1cc2ncnc(Nc3ccc(F)c(Cl)c3)c2cc1NC(=O)/C=C/CN1CCCCC1 [DACOMITINIB] | 0.842 | 0.89 | 0.907 | 0.916 | 0.896 | 0.939 | 0.858 | 0.879 | 0.869 | 0.824 | 0.91 | 0.804 | 0.888 | 0.87 | 0.814 | 0.856 | 0.893 |
| NC(=O)c1cnc2[nH]ccc2c1N[C@@H]1[C@@H]2CC3C[C@H]1C[C@@](O)(C3)C2 [PEFICITINIB] | 0.912 | 1 | 0.988 | 1 | 0.955 | 0.982 | 0.949 | 0.983 | 1 | 0.938 | 0.985 | 1 | 0.988 | 0.977 | 0.929 | 0.888 | 0.995 |
| C#Cc1cccc(Nc2ncnc3cc(OCCOC)c(OCCOC)cc23)c1 [ERLOTINIB] | 0.943 | 0.982 | 0.956 | 0.992 | 0.994 | 0.994 | 0.941 | 0.983 | 0.984 | 0.893 | 0.968 | 0.926 | 0.992 | 0.946 | 0.927 | 0.978 | 0.955 |
| Cc1cn(-c2cc(NC(=O)c3ccc(C)c(Nc4nccc(-c5cccnc5)n4)c3)cc(C(F)(F)F)c2)cn1 [NILOTINIB] | 0.799 | 0.954 | 0.917 | 0.972 | 0.947 | 0.989 | 0.957 | 0.949 | 0.926 | 0.909 | 1 | 0.996 | 1 | 0.971 | 0.976 | 0.843 | 0.981 |
| C=CC(=O)Nc1cccc(Nc2nc(Nc3ccc(N4CCN(C(C)=O)CC4)cc3OC)ncc2C(F)(F)F)c1 [ROCILETINIB] | 0.912 | 0.886 | 0.878 | 0.973 | 0.929 | 0.975 | 0.874 | 0.857 | 0.899 | 0.831 | 0.893 | 0.889 | 0.937 | 0.912 | 0.906 | 0.867 | 0.921 |
| Cc1cc(Nc2ncc(Cl)c(Nc3ccccc3S(=O)(=O)C(C)C)n2)c(OC(C)C)cc1C1CCNCC1 [CERITINIB] | 0.87 | 0.833 | 0.889 | 0.918 | 0.874 | 0.933 | 0.916 | 0.784 | 0.81 | 0.751 | 0.924 | 0.865 | 0.923 | 0.901 | 0.827 | 0.884 | 0.933 |
| Cc1cn(-c2cc(NC(=O)c3ccc(C)c(Nc4nccc(-c5cnccn5)n4)c3)cc(C(F)(F)F)c2)cn1 [RADOTINIB] | 0.894 | 0.977 | 0.976 | 0.997 | 0.988 | 0.992 | 1 | 0.996 | 0.992 | 0.999 | 1 | 1 | 1 | 0.967 | 0.995 | 0.929 | 1 |
| CNC(=O)c1cc(Oc2ccc(NC(=O)Nc3ccc(Cl)c(C(F)(F)F)c3)cc2)ccn1 [SORAFENIB] | 0.756 | 0.916 | 0.943 | 0.944 | 0.93 | 0.907 | 0.925 | 0.966 | 0.951 | 0.949 | 0.917 | 0.951 | 0.936 | 0.978 | 0.975 | 0.841 | 0.95 |
| CC[C@@H]1C(=O)N(C)c2cnc(Nc3ccc(C(=O)N[C@H]4CC[C@H](N5CCN(CC6CC6)CC5)CC4)cc3OC)nc2N1C(C)C [VOLASERTIB] | 0.647 | 0.653 | 0.766 | 0.601 | 0.534 | 0.642 | 0.555 | 0.504 | 0.533 | 0.52 | 0.635 | 0.723 | 0.693 | 0.578 | 0.547 | 0.453 | 0.531 |
| C[C@@H](Oc1cc(-c2cnn(C3CCNCC3)c2)cnc1N)c1c(Cl)ccc(F)c1Cl [CRIZOTINIB] | 0.877 | 0.859 | 0.879 | 0.919 | 0.873 | 0.944 | 0.765 | 0.758 | 0.824 | 0.72 | 0.717 | 0.915 | 0.901 | 0.834 | 0.74 | 0.745 | 0.817 |
| FC(F)(F)c1ccc(CNc2ccc(Cc3c[nH]c4ncc(Cl)cc34)cn2)cn1 [PEXIDARTINIB] | 0.837 | 0.946 | 0.903 | 0.953 | 0.975 | 0.955 | 0.978 | 0.991 | 1 | 0.97 | 0.979 | 0.935 | 0.974 | 0.939 | 1 | 0.861 | 0.976 |
